Results: publication PMC11274654 (Biomedicines, 2024)
Where two headings read alike, the source gives them in different places.

How the values were obtained:
mouse BMSCs (mBMSCs) [1] = test: BrdU proliferation assay in mBMSCs; type: cell-based; conditions: 1 nM
Procedure: Rat and mouse bone marrow stromal cells (BMSCs) were seeded at a density of 4000 cells/well in a 96-well plate for cell proliferation and treated with 1 nM of MTZ for 48 h in a growth medium (α-MEM containing 10% FBS). Following the MTZ treatment, the cells were incubated for 4 h with bromodeoxyuridine (BrdU) before termination. Cell proliferation was assessed at 450 nm using the Roche Diagnostics BrdU ELISA kit, in accordance with the manufacturer’s protocol, using a reference wavelength of 690 nm.

[2] = Pharmacokinetic study, s.c., plasma LC-MS/MS; type: in vivo; conditions: rats, 40 mg/rat s.c.
Procedure: Mass spectrometric detections were carried out using an AB Sciex 4000 QTRAP LC-MS/MS, Redwood City, CA, USA) instrument fitted with an electrospray ionization source. Separation was conducted through X Bridge^TM Shield RP 18 (Waters, MA, USA) (5 µm, 4.6 × 50 mm) column. […] The ion spray voltage was set at 4500 V. […] The MS was operated in the ESI positive-ion mode, and the detection of the ions was performed in the multiple reaction monitoring (MRM) mode, monitoring the transition of m/z 172.06 precursor ion [M + H]+ to the m/z 128.08 product ion for IS and m/z 236.95 precursor ion [M + H]+ to the m/z 194.04 product ion for compound, respectively. After overnight fasting, the animals were divided into two groups (n = 4) based on the treatment: […] An MTZ suspension was prepared in water. Blood samples were collected at predetermined time points (0.25 to 48 h). […] To extract MTZ from plasma samples, the protein precipitation method was used. In this method, plasma samples (50 μL) were taken (50 ng/mL of carbamazepine (CBZ) as the internal standard) and vortexed at 2000 rpm for 10 min. Subsequently, the samples were centrifuged at 10,000 rpm for 10 min. The supernatant (100 µL) was taken for LC-MS/MS analysis. Data acquisition and quantitation were performed using analyst software. The PK parameters were determined using the Phoenix™ 6.3 WinNonlin (Pharsight Corporation, Mountain View, CA, USA) software as a noncompartmental model approach.

[3] = In vitro MTZ release in PBS and release kinetics models; type: physicochemical; set-up: Hixson–Crowell kHC / Zero-order K0 / First-order K1 / Higuchi kH: unit not given here; conditions: in PBS
Procedure: To evaluate the release kinetics profile of MTZ, a formulation containing 10 mg equivalent of MTZ was injected into 200 mL of the PBS medium (37 ± 0.5 °C) using a 20-gauge needle. The formulation immediately turned into a gel upon contact with the dissolution medium. The dissolution vials were placed on a reciprocating bath-shaker and left for continuous shaking throughout the dissolution study. A total of 2 mL of aliquots were withdrawn and replaced with an equal volume of fresh PBS to maintain the sink condition. The dissolution study was conducted for a duration of 24 h. The samples were filtered through a syringe filter (0.22 μm). The MTZ concentrations were analyzed spectrophotometrically (294 nm) after appropriate dilution, with PBS as a blank for background correction. The measured concentrations were presented as the mean ± standard deviation (SD).
To understand the drug release kinetics, data obtained from the release study were fitted into various kinetics models: zero-order, first-order, Higuchi, Korsmeyer–Peppas, and Hixson–Crowell. The DD solver Excel add-in program was utilized to compare and identify the mechanism of drug release.

mouse BMSCs (mBMSCs) [4] = test: Nodule mineralization (Alizarin Red S) in mBMSCs; type: cell-based; conditions: 21 days post-treatment, differentiation medium
Procedure: Rat and mouse BMSCs were seeded at a density of 1 × 10^6 cells/well in a 6-well plate, vehicle or MTZ (1 nM) treatment was conducted, and the media were changed every alternate day for 21 days using a differentiation medium [10% FBS, β-glycerophosphate (10 mM), ascorbic acid (50 µg/mL), and dexamethasone (100 nM) in α-MEM].
Cells were fixed with 10% formalin for 15 min and stained with Alizarin Red for 1 h after 21 days of culture. Moreover, 10% cetylpyridinium chloride (Sigma #C0732) was used to quantify mineralized nodules at a 595 nm wavelength.

[5] = tested on: serum P1NP and CTX-I of OVX rats; test: OVX osteopenia model, serum bone turnover markers (ELISA); type: in vivo, SD rats; conditions: 235 mg/kg oral, 3 months
Procedure: The 10-month-old (265 ± 20 g) SD rats were ovariectomized (OVX) bilaterally and left for 3 months to develop osteopenia. Ovary-intact sham-operated animals were used as a control. A live animal micro-CT was performed to confirm osteopenia, followed by dividing the animals into 3 groups: Sham + vehicle (water, oral), OVX + vehicle (water, oral), and OVX + MTZ (235 mg/kg, oral). Each group had 9 rats, and treatment were administered for 3 months. Calcein (20 mg/kg, s.c.) was injected twice before sacrificing at 10-day intervals. The levels of serum procollagen type I N-terminal peptide (P1NP) and serum cross-linked C-telopeptide of type I collagen (CTX-I) were assessed using ELISA (MyBioSource, San Diego, CA, USA), in accordance with the manufacturer’s protocol.

[6] = tested on: β-catenin nuclear translocation in osteoblasts (RCO); test: Immunofluorescence of β-catenin nuclear translocation in RCO; type: cell-based, rat; conditions: 10 nM
Procedure: RCOs were grown on Lab-Tek Chamber Slides (Nunc, Penfield, NY, USA) to 40–50% confluence for 24 h. After treatment with MTZ at different time points, cells were fixed with 4% formaldehyde, followed by permeabilization with 0.1% Triton™ X-100 for 15 min, blocked with 2% goat serum for 2 h, and labeled with primary antibody against β-catenin (Cell Signaling Technology, Danvers, MA, USA, catalog number 9562S) (1:100) overnight at 4 °C in a moist chamber. Alexa Fluor® 594 (Abcam, Cambridge, UK, catalog number ab150080) was used as a secondary antibody (1:200 dilution) for 2 h at room temperature. […]

rat BMSCs (rBMSCs) = test: ALP activity in rat bone marrow stromal cells; type: cell-based; conditions: 1 nM, seven days post-treatment

MRT ([2]; plasma, sc): 7.63 ± 0.3 h | AUC ([2]; plasma, sc, read-out: Area under the curve (AUC)0–last): 206 ± 7.05 µg·h/mL | Cmax ([2]; plasma, sc, read-out: Maximum concentration (Cmax)): 23000 ± 870 ng/mL | Cl [2]: 13 ± 0.5 mL/min/kg | Vd [2]: 4.91 ± 0.15 L/kg | AUC(0-inf) ([2]; sc, plasma): 206 ± 7.05 µg·h/mL | Tmax ([2]; sc, plasma): 1.75 ± 0.25 h | half-life ([2]; sc, plasma): 4.39 ± 0.26 h | Cmax ([2]; sc, plasma, read-out: Cmax): 23000 ± 870 ng/mL | First-order K1 [3]: 0.08 ± 0.00 | First-order R^2 [3]: 0.84 ± 0.00 | Higuchi R^2 [3]: 0.71 ± 0.00 | Higuchi kH [3]: 16.34 ± 0.12 | Hixson–Crowell R^2 [3]: 0.86 ± 0.01 | Hixson–Crowell kHC [3]: 0.02 ± 0.00 | Korsmeyer–Peppas R^2 [3]: 0.81 ± 0.01 | Korsmeyer–Peppas kKP [3]: 8.64 ± 0.11 | Korsmeyer–Peppas n (release exponent) [3]: 0.78 ± 0.01 | Zero-order K0 [3]: 4.77 ± 0.05 | Zero-order R^2 [3]: 0.76 ± 0.01
Compound: Cc1ncc([N+](=O)[O-])n1CCO [Metronidazole]
Proliferation (BrdU incorporation) (mouse BMSCs (mBMSCs) [1]): did not affect | Osteogenic differentiation and mineralized nodule formation (mouse BMSCs (mBMSCs) [4]): stimulated | Serum bone formation marker P1NP levels [5]: restored | Serum resorption marker CTX-1 [5]: failed to reduce it | β-catenin nuclear translocation [6]: induced | ALP activity compared to the vehicle group (rat BMSCs (rBMSCs)): increased
